Experimental data reported in PubChem BioAssay AID248 (DTP/NCI, 2004).
Inconclusive results and toxic doses are left out. Cut-off read from the data, not from the text of the source: active = T/C of 150% or more; inactive = T/C below 125%.

Tested on: L1210 leukemia ip in BDF1 mice, survival T/C
Test: NCI In Vivo Anticancer Drug Screen. Data for tumor model L1210 Leukemia (intraperitoneal) in B6D2F1 (BDF1) mice
Details: endpoint: mean survival time, higher = longer survival
Summary of the method: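 Ratio derived from survival: compound-dosed mice over vehicle-dosed mice, all bearing a transplantable tumor.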

[1] = dose: 100.0 mg/kg/injection, schedule: Q04DX002 (ip), vehicle: saline with Tween-80
[2] = dose: 200.0 mg/kg/injection, schedule: Q04DX002 (ip), vehicle: saline with Tween-80
[3] = dose: 400.0 mg/kg/injection, schedule: Q04DX002 (ip), vehicle: saline with Tween-80
[4] = dose: 50.0 mg/kg/injection, schedule: Q04DX003 (ip), vehicle: saline
[5] = dose: 100.0 mg/kg/injection, schedule: Q01DX001 (ip), vehicle: saline
[6] = dose: 25.0 mg/kg/injection, schedule: Q01DX009 (ip), vehicle: saline
[7] = dose: 50.0 mg/kg/injection, schedule: Q01DX009 (ip), vehicle: saline
[8] = dose: 200.0 mg/kg/injection, schedule: Q01DX001 (ip), vehicle: saline
[9] = dose: 100.0 mg/kg/injection, schedule: Q04DX003 (ip), vehicle: Klucel (hydroxypropylcellulose) (HPC)
[10] = dose: 200.0 mg/kg/injection, schedule: Q04DX003 (ip), vehicle: Klucel (hydroxypropylcellulose) (HPC)
[11] = dose: 400.0 mg/kg/injection, schedule: Q04DX003 (ip), vehicle: Klucel (hydroxypropylcellulose) (HPC)
[12] = dose: 400.0 mg/kg/injection, schedule: Q01DX001 (ip), vehicle: saline

Measured: T/C

CC(=O)NCCc1ccc(NCc2cnc3nc(N)nc(N)c3n2)cc1
inactive: dose: 20.0 mg/kg/injection, schedule: Q01DX009 (ip), vehicle: Klucel (hydroxypropylcellulose) (HPC) 98 % of control | dose: 40.0 mg/kg/injection, schedule: Q01DX009 (ip), vehicle: Klucel (hydroxypropylcellulose) (HPC) 96 % of control | dose: 80.0 mg/kg/injection, schedule: Q01DX009 (ip), vehicle: Klucel (hydroxypropylcellulose) (HPC) 98 % of control

CCOC(=O)C(Cc1ccc2ccccc2n1)C(C)=O (stereo not drawn)
inactive: dose: 50.0 mg/kg/injection, schedule: Q01DX009 (ip), vehicle: DMSO 86 % of control | dose: 100.0 mg/kg/injection, schedule: Q01DX009 (ip), vehicle: DMSO 102 % of control

O=NN(C(=O)c1ccccc1)C(c1ccccc1)c1ccc(Cl)cc1 (stereo not drawn)
inactive: dose: 45.0 mg/kg/injection, schedule: Q04DX002 (ip), vehicle: Klucel (hydroxypropylcellulose) (HPC) 91 % of control | dose: 90.0 mg/kg/injection, schedule: Q04DX002 (ip), vehicle: Klucel (hydroxypropylcellulose) (HPC) 91 % of control | dose: 180.0 mg/kg/injection, schedule: Q04DX002 (ip), vehicle: Klucel (hydroxypropylcellulose) (HPC) 97 % of control

O=C(Nc1nccs1)c1cc2ccccc2cc1O
inactive: [1] 97 % of control | [2] 87 % of control | [3] 87 % of control

CNC1(c2ccccc2)CC2CCC(C2)C1=O (stereo not drawn)
inactive: dose: 25.0 mg/kg/injection, schedule: Q04DX003 (ip), vehicle: saline 100 % of control | [4] 86 % of control | [5] 102 % of control

CCCCCCCCCCCC[N+](CC)(CC)CC(=O)O
inactive: dose: 12.5 mg/kg/injection, schedule: Q01DX009 (ip), vehicle: saline 88 % of control | [6] 97 % of control | [7] 104 % of control | [4] 111 % of control | [5] 93 % of control | [8] 98 % of control

Cc1ccc2c(c1)Sc1ccc3ccccc3c1N2
inactive: dose: 100.0 mg/kg/injection, schedule: Q01DX009 (ip), vehicle: saline sonified 104 % of control | [9] 97 % of control | dose: 200.0 mg/kg/injection, schedule: Q01DX009 (ip), vehicle: saline sonified 88 % of control | [10] 89 % of control | dose: 400.0 mg/kg/injection, schedule: Q01DX009 (ip), vehicle: saline sonified 100 % of control | [11] 92 % of control

O=C(Cc1cccc2ccccc12)OCCOCCCl
inactive: [1] 101 % of control | [2] 104 % of control | [3] 117 % of control

Clc1ccc2scc3c4ccccc4nc-3c2c1
inactive: dose: 100.0 mg/kg/injection, schedule: Q04DX003 (ip), vehicle: acetone 102 % of control

CCCCC(=O)N/N=C/c1ccc([N+](=O)[O-])cc1
inactive: [5] 95 % of control | [8] 89 % of control | [12] 94 % of control

ClCCN(CCCl)CCCN1c2ccccc2Sc2ccc(Cl)cc21
inactive: dose: 1.56 mg/kg/injection, schedule: Q01DX009 (ip), vehicle: saline with Tween-80 100 % of control | dose: 3.12 mg/kg/injection, schedule: Q01DX001 (ip), vehicle: saline with Tween-80 105 % of control | dose: 3.12 mg/kg/injection, schedule: Q01DX009 (ip), vehicle: saline with Tween-80 112 % of control | dose: 6.25 mg/kg/injection, schedule: Q01DX001 (ip), vehicle: saline with Tween-80 103 % of control | dose: 6.25 mg/kg/injection, schedule: Q01DX009 (ip), vehicle: saline with Tween-80 110 % of control | dose: 6.25 mg/kg/injection, schedule: Q04DX003 (ip), vehicle: saline with Tween-80 102 % of control | dose: 12.5 mg/kg/injection, schedule: Q01DX001 (ip), vehicle: saline with Tween-80 108 % of control | dose: 12.5 mg/kg/injection, schedule: Q01DX009 (ip), vehicle: saline with Tween-80 112 % of control | dose: 12.5 mg/kg/injection, schedule: Q04DX003 (ip), vehicle: saline with Tween-80 107 % of control | dose: 25.0 mg/kg/injection, schedule: Q04DX003 (ip), vehicle: saline with Tween-80 110 % of control | dose: 50.0 mg/kg/injection, schedule: Q04DX003 (ip), vehicle: saline with Tween-80 122 % of control

O=C1CCc2cc(Br)ccc2O1
inactive: dose: 50.0 mg/kg/injection, schedule: Q01DX001 (ip), vehicle: saline 92 % of control | [5] 103 % of control | [8] 100 % of control | [12] 100 % of control

CC(C)(C)CC(C)(C)c1ccc(OCCOc2ccccc2N)cc1
inactive: dose: 100.0 mg/kg/injection, schedule: Q04DX003 (ip), vehicle: saline with Tween-80 94 % of control | dose: 200.0 mg/kg/injection, schedule: Q04DX003 (ip), vehicle: saline with Tween-80 95 % of control | dose: 400.0 mg/kg/injection, schedule: Q04DX003 (ip), vehicle: saline with Tween-80 97 % of control

CC1=NN(c2ccc(S(=O)(=O)O)cc2)C(=O)/C1=C/c1ccc(Cl)cc1Cl
inactive: [5] 110 % of control | [9] 105 % of control | [8] 96 % of control | [10] 97 % of control | [12] 104 % of control | [11] 94 % of control

NC(N)=NC(N)=Nc1ccccc1
inactive: dose: 100.0 mg/kg/injection, schedule: Q04DX002 (ip), vehicle: Klucel (hydroxypropylcellulose) (HPC) 101 % of control | dose: 200.0 mg/kg/injection, schedule: Q04DX002 (ip), vehicle: Klucel (hydroxypropylcellulose) (HPC) 105 % of control | dose: 400.0 mg/kg/injection, schedule: Q04DX002 (ip), vehicle: Klucel (hydroxypropylcellulose) (HPC) 97 % of control

CCCCCCCCCCOc1ccc(C=O)c(OC)c1
inactive: [9] 98 % of control | [10] 93 % of control | [11] 91 % of control

C=CC1CN(CCc2cc3ccccc3[nH]2)CCC1CC(=O)OCC (stereo not drawn)
inactive: dose: 100.0 mg/kg/injection, schedule: Q01DX009 (ip), vehicle: saline with Tween-80 91 % of control | dose: 200.0 mg/kg/injection, schedule: Q01DX009 (ip), vehicle: saline with Tween-80 96 % of control | dose: 400.0 mg/kg/injection, schedule: Q01DX009 (ip), vehicle: saline with Tween-80 97 % of control

CC(C)OC(=S)S
inactive: [6] 100 % of control | [7] 94 % of control | dose: 100.0 mg/kg/injection, schedule: Q01DX009 (ip), vehicle: saline 93 % of control

CCC1=C[C@H]2CN(CCc3c([nH]c4ccccc34)[C@@](C(=O)OC)(c3cc4c(cc3OC)N(C)[C@H]3[C@@](O)(C(=O)OC)[C@H](OC(C)=O)[C@]5(CC)C=CCN6CC[C@]43[C@@H]65)C2)C1
inactive: dose: 0.25 mg/kg/injection, schedule: Q01DX009 (ip), vehicle: water 109 % of control | dose: 0.5 mg/kg/injection, schedule: Q01DX009 (ip), vehicle: water 101 % of control | dose: 1.0 mg/kg/injection, schedule: Q01DX009 (ip), vehicle: water 111 % of control | dose: 2.0 mg/kg/injection, schedule: Q01DX009 (ip), vehicle: water 103 % of control | dose: 4.0 mg/kg/injection, schedule: Q01DX009 (ip), vehicle: water 114 % of control | dose: 8.0 mg/kg/injection, schedule: Q01DX009 (ip), vehicle: water 112 % of control

O=C(O)C(Cc1ccc(O)c([N+](=O)[O-])c1)N1C(=O)c2ccccc2C1=O (stereo not drawn)
inactive: [5] 101 % of control | [8] 95 % of control | [12] 95 % of control
